Results on two molecules are retold here after patent publication US20140045883A1, “ACK1 KINASE INHIBITION TO TREAT TRIPLE NEGATIVE BREAST CANCER” (H. Lee Moffitt Cancer Center and Research Institute, Inc., priority 2012, published 2014).

One series relates to pTyr176-AKT. Briefly: Affinity Purification coupled ELISA for pTyr176-AKT in MDA-MB-231. The series is classed as cell-based. As to conditions: MDA-MB-231 cells treated with inhibitor. Here is the method:
FIG. 6 is a bar graph showing Affinity Purification coupled ELISA for pTyr176-AKT detection in TNBC derived cell line MDA-MB-231. MDA-MB-231 cell lysates were incubated with streptavidin beads with AKT peptide. The AKT peptides were eluted and phosphorylation was detected using ELISA.
Towards detecting pY176-AKT in TNBC derived cell lines, MDA-MB-231 (1×10^4 cells) were lysed in reaction buffer containing phosphatase and protease inhibitors and lysates were quantitated. Biotinylated AKT peptide was incubated with streptavidin beads for 1 hours, beads were washed and the AKT peptide coated beads were incubated with cell lysates for 1 hours at room temperature. The beads were washed in PBST and the bound peptides were eluted. To elute the bound biotinylated AKT peptide from Streptavidin Beads, Streptavidin Beads were resuspended in 10 mM NaCl containing solution followed by heating the mix at 75° C. for 2-3 minutes, as described in literature (33). The eluted AKT peptides were immobilized onto streptaviding plates and presence of phospho-peptides was detected by ELISA described above in step I.

A further series concerns MDA-MB-468 cell line. In words: Cell growth assay (WST1). It is filed as cell-based. The following applies: MDA-MB-468, 72 hours. Here is the method:
(§1) Experiment was performed twice with 8 replicates, a representative data set is shown.
(§2) To determine whether inhibition of the Ack1/AKT signaling pathway affects TNBC-derived cancer cell proliferation, MDA-MB-231 and MDA-MB-468 cell lines were treated with increasing concentrations of PLX-4032 or AIM-100. A cell growth assay was performed by adding solution of WST1 to 96 wells (5×10^3 cells) and incubation for 1 h. The cell viability as a function of mitochondrial activity in living cells was measured spectrophotometrically at a wavelength of 450 nm.

The test system of the next series is MDA-MB-231 cell line. In words: Cell growth assay (WST1). It is filed as cell-based. The following applies: MDA-MB-231, 72 hours, read-out: IG50 (cell growth). The protocol:
as §1, §2

Series [1] deals with Ack1. In words: Ack1 autoactivation in transfected HEK293 cells (HA immunoprecipitation, pTyr immunoblot). The following applies: HEK293 cells transfected with HA-tagged Ack1 WT/point mutants, 5 uM overnight.
Protocol: Immunoprecipitation with HA-beads followed by immunoblotting with pTyr (top and middle panel) or Ack1 (bottom panel) antibodies was performed.
Site directed mutagenesis was performed and HA-tagged point mutants were generated. HEK293 cells were transfected, grown in growth factor free media, followed by immunoprecipitation with HA-beads.
In another series the test system is AKT. Briefly: Immunoblot of AKT phosphorylation in insulin/EGF-treated MCF-7 and A2780-CP cells. The series is classed as cell-based. As to conditions: AIM-100 overnight (3 μM), insulin or EGF stimulated. Here is the method:
(§3) FIGS. 3A-3B are images of immunoblots of lysates from serum starved MCF-7 and A2780-CP cells treated (or untreated) with insulin or EGF (10 ng/ml) and AIM-100 (3 μM, overnight) that were immunoblotted with pTyr176-AKT (top panel), pSer473-AKT (2nd panel), pThr308-AKT (3rd panel), pTyr284-Ack1 (4th panel) and tubulin (bottom panel).
(§4) To assess the potential inhibition of Ack1 activity, MCF-7 (breast) and A2780-CP (Ovary) cells were treated with AIM-100 overnight. Cells were either untreated or treated with Insulin (for 30 mins) or EGF (15 min) followed by immunoblotting of lysates with pTyr284-Ack1 antibody.

Series [2] addresses Ack1 (Homo sapiens, UniProt Q07912). The series is classed as cell-based. The following applies: MCF-7 and A2780-CP cells, AIM-100 overnight (3 μM), insulin or EGF stimulated. Here is the method:
as §3, §4

The test system of a further series is xenograft tumor. Briefly: Xenograft tumor growth. The following applies: in vivo.
A further series deals with purified Ack1 kinase (Homo sapiens, UniProt Q07912). As to conditions: inhibitor 50 nM, Ack1 50 nM, 5 uM ATP, 1 hour.
Chain of purified Ack1 kinase (Q07912 whole entry): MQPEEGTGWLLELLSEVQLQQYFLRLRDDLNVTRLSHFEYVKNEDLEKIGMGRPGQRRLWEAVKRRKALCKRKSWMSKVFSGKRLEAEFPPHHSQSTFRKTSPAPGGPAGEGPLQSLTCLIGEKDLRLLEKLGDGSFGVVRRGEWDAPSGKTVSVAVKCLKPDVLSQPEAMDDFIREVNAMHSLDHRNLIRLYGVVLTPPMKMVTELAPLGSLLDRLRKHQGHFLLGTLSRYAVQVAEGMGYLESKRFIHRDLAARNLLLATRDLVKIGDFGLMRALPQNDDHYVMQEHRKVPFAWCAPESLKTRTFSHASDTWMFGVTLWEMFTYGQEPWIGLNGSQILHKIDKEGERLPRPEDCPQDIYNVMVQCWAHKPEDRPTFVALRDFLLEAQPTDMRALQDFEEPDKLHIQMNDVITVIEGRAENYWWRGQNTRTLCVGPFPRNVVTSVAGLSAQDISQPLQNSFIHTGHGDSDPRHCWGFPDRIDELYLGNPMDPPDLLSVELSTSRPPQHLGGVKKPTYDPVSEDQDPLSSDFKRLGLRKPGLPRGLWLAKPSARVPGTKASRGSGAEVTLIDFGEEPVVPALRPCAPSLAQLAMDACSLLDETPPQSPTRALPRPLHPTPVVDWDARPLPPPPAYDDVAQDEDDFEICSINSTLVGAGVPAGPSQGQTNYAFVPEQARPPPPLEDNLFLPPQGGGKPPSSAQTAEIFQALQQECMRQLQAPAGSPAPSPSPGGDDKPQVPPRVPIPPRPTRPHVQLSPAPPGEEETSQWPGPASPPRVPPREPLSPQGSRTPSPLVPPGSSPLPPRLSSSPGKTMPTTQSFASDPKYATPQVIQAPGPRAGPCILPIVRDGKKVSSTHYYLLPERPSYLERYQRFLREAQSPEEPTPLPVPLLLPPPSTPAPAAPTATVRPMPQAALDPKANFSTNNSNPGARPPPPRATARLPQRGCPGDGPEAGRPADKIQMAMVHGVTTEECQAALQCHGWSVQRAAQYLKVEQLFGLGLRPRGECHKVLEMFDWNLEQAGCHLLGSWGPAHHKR

The structures appear in SMILES notation. Like-named read-outs stand apart in the source and are kept apart here.

Chain of Ack1 (Homo sapiens, UniProt Q07912) (Q07912 whole entry): as above
Protocol for purified Ack1 kinase: The peptides sequence is derived from the region that is recognized by Ack1 leading to AKT Tyr176-phosphorylation and activation (13, 15, 17). The phospho-AKT peptide was used as a positive control and as a standard for quantitation of pT176-AKT in tissue samples.
The AKT peptides were diluted to final concentration of 1 uM in phosphate buffered saline (PBS) and immobilized onto streptavidin plates (R & D systems) for 1 hour. […] After 1 hour of incubation, plates were washed in PBST and secondary antibody (HRP-conjugated anti-rabbit antibody diluted in BSA) was added. After 1 hour, plates were washed in PBST and devoped using OPD substrate (Sigma) and read at 450 nm.

Turning to `CCCS(=O)(=O)Nc1ccc(F)c(C(=O)c2c[nH]c3ncc(-c4ccc(Cl)cc4)cc23)c1F` [PLX4032, Vemurafenib], the “pTyr176-AKT levels (Affinity Purification Coupled ELISA)” value in the series on pTyr176-AKT is “significant decrease”. The IC50 in the series with MDA-MB-468 cell line (Homo sapiens, read-out: IG50 (cell growth)) was ~13 µM; with MDA-MB-231 cell line (Homo sapiens), ~13 µM. In addition, the “Ack1 activation (pTyr immunoblot)” value with Ack1 [1] is listed as “completely abrogated Ack1 activation”.

For `c1ccc(-c2oc3ncnc(NC[C@@H]4CCCO4)c3c2-c2ccccc2)cc1` [AIM-100], in the series with pTyr176-AKT, the “pTyr176-AKT levels (Affinity Purification Coupled ELISA)” value is listed as “significant decrease”. Further, the “AKT Tyr176/Ser473 and Thr308-phosphorylations” value in the series on AKT is recorded as “significant decrease”. In addition, the “endogenous pTyr284-Ack1 levels” value on Ack1 [2] is given as “significantly decreased”. Moreover, in the series on MDA-MB-468 cell line, the “cellular cytotoxicity (in words)” value is recorded as “rather resistant”. For the same molecule, in the series with MDA-MB-231 cell line, the IC50 is ~16 µM. Besides, the xenograft tumor growth entry in the series with xenograft tumor is recorded as “suppresses”. Further, the “Ack1 activation (pTyr immunoblot)” value with Ack1 [1] is “completely abrogated Ack1 activation”. Further, on purified Ack1 kinase, the “AKT Tyr176-phosphorylation (ELISA)” value was “significant decrease”.
